Laboratory results published in patent US20240417735A1, “ORAL CODELIVERY OF 5-FLUOREURACIL AND Bcl2 siRNA TREATING STOMACH CANCER” (Board of Regents, The University of Texas System, priority 2023, published 2024).

Tests used:
Bcl2 [1] = test: Immunohistochemistry/immunofluorescence of Bcl2 in stomach sections; format: in vivo, C57BL/6 mice; settings: anti-Bcl2 positive area vs whole section stained with DAPI
Procedure: (§1) A stomach cancer mice model was developed by feeding N-methyl-N-nitrosourea (NMNU) with water (IACUC protocol no A-201019-A). The 6-week-old C57BL/6 mice were kept in a 12 hr light-12 hr dark cycle. The mice had unprotected access to food and water. NMNU was dissolved in distilled water available ad libitum, freshly prepared three times per week. The mice received 240 ppm NMNU in the drinking water over 5 weeks (every other week). Five weeks after NMNU administration, the mice were ready for the experiment, as the method was reported elsewhere. A total of 30 stomach cancer mice were prepared and divided randomly into […]—no treatment (control), 5FU, BG/5FU, siRNA, BG/siRNA, and BG/5FU/siRNA. Another group of healthy mice were used as a negative control without any treatment. […] Immediately after harvesting the size and weight of the stomach and intestine were measured. […]
The stomach tissue was also utilized to analysis Bcl2 protein expression using immunohistochemistry (IHC). The anti-Bcl2 positive area was quantified in comparison to the whole tissue section stained with DAPI. […] To measure the relative expression of Bcl2 on the tissue section the data was calculated and compared with the stomach tissue collected from the healthy mice, where Bcl2 expression in healthy mice was considered as 100% (FIG. 5B). […]

[2] = system: advanced colorectal cancer; settings: cited from earlier work
Bcl2 [3] = test: Western blotting of Bcl2 in stomach tissue lysate; format: in vivo, C57BL/6 mice; settings: healthy = 1
Procedure: A stomach cancer mice model was developed by feeding N-methyl-N-nitrosourea (NMNU) with water (IACUC protocol no A-201019-A). The 6-week-old C57BL/6 mice were kept in a 12 hr light-12 hr dark cycle. The mice had unprotected access to food and water. NMNU was dissolved in distilled water available ad libitum, freshly prepared three times per week. The mice received 240 ppm NMNU in the drinking water over 5 weeks (every other week). Five weeks after NMNU administration, the mice were ready for the experiment, as the method was reported elsewhere. A total of 30 stomach cancer mice were prepared and divided randomly into […]—no treatment (control), 5FU, BG/5FU, siRNA, BG/siRNA, and BG/5FU/siRNA. Another group of healthy mice were used as a negative control without any treatment. To investigate therapeutic feasibility, 5FU (10 mg/kg) and siRNA (100 nM) was administered either orally (PO) or intravenously (IV). All the formulations were freshly prepared prior to administration. […] Immediately after harvesting the size and weight of the stomach and intestine were measured.
The fresh frozen stomach tissue was homogenized using RIPA buffer with freshly prepared protease inhibitor in it. […] The supernatant was collected, and the total protein content was determined using Bradford's assay (Sigma-Aldrich). […] The band intensities were calculated using ImageJ software.

[4] = system: stomach cancer mice model; test: TUNEL assay of apoptosis in stomach tissue of stomach cancer mice; format: in vivo, C57BL/6 mice; settings: relative to untreated control; oral, 5 doses every 3rd day
Procedure: A stomach cancer mice model was developed by feeding N-methyl-N-nitrosourea (NMNU) with water (IACUC protocol no A-201019-A). The 6-week-old C57BL/6 mice were kept in a 12 hr light-12 hr dark cycle. The mice had unprotected access to food and water. NMNU was dissolved in distilled water available ad libitum, freshly prepared three times per week. The mice received 240 ppm NMNU in the drinking water over 5 weeks (every other week). Five weeks after NMNU administration, the mice were ready for the experiment, as the method was reported elsewhere. A total of 30 stomach cancer mice were prepared and divided randomly into 5 groups—no treatment (control), 5FU, BG/5FU, siRNA, BG/siRNA, and BG/5FU/siRNA. Another group of healthy mice were used as a negative control without any treatment. […] Immediately after harvesting the size and weight of the stomach and intestine were measured.
A TUNEL assay was conducted to investigate the apoptosis within the tissue from the stomach of both healthy, untreated cancer, and treated cancer mice. […] Apoptosis was quantified by the mean fluorescent intensity and compared with healthy control and untreated control. The degree of apoptosis was calculated as 49, 107, 38, 62, and 131% for the 5FU, BG/5FU, siRNA, BG/siRNA, and BG/5FU/siRNA group relative to untreated control, respectively.

Ki67 = test: Immunofluorescence of Ki67 in stomach sections; format: in vivo, C57BL/6 mice; settings: vs whole tissue section DAPI stained
Procedure: as §1
Cell proliferation marker was measured by immunofluorescence assay to evaluate the antitumor effect of the formulations. […] The protein expression was quantified from immunofluorescence images. The area with Ki67 positive cells was measured in compared to the whole tissue section with DAPI stained. The area (%) of healthy, untreated, 5FU, BG/5FU, siRNA, BG/siRNA, and BG/5FU/siRNA was measured as 0.16%, 0.27%, 0.54%, 0.52%, 0.38%, 0.29%, and 0.03%, respectively. […]

[5] = system: stomach cancer mice model; test: H&E histology of stomach; format: in vivo, C57BL/6 mice; settings: 10× magnification, whole tumor area
Procedure: A stomach cancer mice model was developed by feeding N-methyl-N-nitrosourea (NMNU) with water (IACUC protocol no A-201019-A). The 6-week-old C57BL/6 mice were kept in a 12 hr light-12 hr dark cycle. The mice had unprotected access to food and water. NMNU was dissolved in distilled water available ad libitum, freshly prepared three times per week. The mice received 240 ppm NMNU in the drinking water over 5 weeks (every other week). Five weeks after NMNU administration, the mice were ready for the experiment, as the method was reported elsewhere. A total of 30 stomach cancer mice were prepared and divided randomly into […]—no treatment (control), 5FU, BG/5FU, siRNA, BG/siRNA, and BG/5FU/siRNA. Another group of healthy mice were used as a negative control without any treatment. To investigate therapeutic feasibility, 5FU (10 mg/kg) and siRNA (100 nM) was administered either orally (PO) or intravenously (IV). All the formulations were freshly prepared prior to administration. Formulations were administered orally on every 3rd day for the subsequent 5 cycles over 15 days. The animals were sacrificed 72 hr after the last treatment followed by the organ harvest and blood collection for further studies. Immediately after harvesting the size and weight of the stomach and intestine were measured. […]

[6] = Ex vivo diffusion study in porcine intestine lumen; format: in vitro ADME; settings: for distribution in intestine layers (fluorescence): with BG
Source text: The mucoadhesiveness and intestinal transportation of hydrophobic small molecule were further confirmed by an ex vivo diffusion study in a porcine intestine lumen. As the mucous layer is a barrier for hydrophobic molecules, to check how it crosses through the epithelial layer with assistance of BG we have used coumarin-6, a small molecule hydrophobic fluorescent dye with similar chemical and physical properties (molecular weight and hydrophobicity) as 5FU, for ease of visualization and detection purpose. […] The same tissue was subjected to be observed under a ChemiDoc imager to capture the fluorescence signal within the cross-sectioned of the intestinal lumen and similar result was observed. With time (30 min, 2 hr, and 12 hr) more coumarin-6 were distributed throughout the intestine which is an indication and confirmation of BG's ability to facilitate intestinal transportation of hydrophobic payload (FIG. 2C).

Row | SMILES | area percentage of Bcl2 antibodies (Bcl2 [1]) [%] | treatment response rate [2] | Relative expression of Bcl2 (WB) (Bcl2 [3]) | degree of apoptosis (mean fluorescent intensity) [4] [%] | area of Ki67 positive cells (Ki67) [%] | tumor in stomach by H&E [5] | distribution in intestine layers (fluorescence) ([6]; 2nd hr) | distribution in intestine layers (fluorescence) ([6]; 12th hr) | diffusion through the intestinal layer ([6]; without BG)
1 | O=c1[nH]cc(F)c(=O)[nH]1 [5FU, 5-fluoreuracil] | 1.22 | 10-15% | 1.24±0.11 | 49 | 0.54 | tumor region got significantly reduced | – | – | –
2 | CCN(CC)c1ccc2cc(-c3nc4ccccc4s3)c(=O)oc2c1 [coumarin-6, Coumarin 6] | – | – | – | – | – | – | observed within deeper layers of the intestine | incorporates evenly across the layers of the intestine | not able to diffuse through the intestinal layer
